Test results as given in patent publication US20260199234A1, “PHARMACEUTICAL COMPOSITIONS OF POLYMERIC MICELLAR CINACALCET, AND METHODS OF PREPARATION AND USE THEREOF” (HANGZHOU SHIXI PHARMACEUTICAL TECHNOLOGY CO., LTD., priority 2023, published 2026).

What was measured:
[1] = Unbound cinacalcet fraction in plasma (30 kD ultrafiltration, RP-HPLC); format: in vitro ADME, rabbit; conditions: Recon conc. 1 mg/ml
Protocol: The unbound cinacalcet fractions in plasma were determined. The cinacalcet buffer solution and cinacalcet polymer micelles were mixed with rabbit plasma at 1:4 ratio, incubated at 37° C., and filtered through 30 kD ultrafiltration membrane. The filtrate and unfiltered plasma were mixed with acetonitrile at a ratio of 1:4, and the cinacalcet concentrations were determined by an RP-HPLC. Table 10 presents unbound (filtered) and total (unfiltered) cinacalcet concentrations, and calculated % unbound fractions (unbound concentration divided by total concentration).

[2] = oral, fasted subjects; cited from earlier work

Compound: C[C@@H](NCCCc1cccc(C(F)(F)F)c1)c1cccc2ccccc12 [cinacalcet]
- Total conc. ([1]; 1:4 with rabbit plasma, 37° C.): 0.84 ± 0.01 mg/mL
- Unbound concentration ([1]; 5 min): 92 ± 16 µg/mL
- fraction unbound at 5 min, 0.2 mg/mL ([1]; rabbit, rabbit plasma, 5 min): 0.11
- Absolute bioavailability [2]: 20-25%
